What was measured:
[1] = target: T1, human recombinant kinase full-length AKT1 E17K (Homo sapiens, UniProt P31749, E17K); experiment: AKT1 E17K kinase assay (TR-FRET, Lance); format: biochemical; conditions: 0.6 nM AKT1 E17K, 50 nM Ulight-CREBtide, either 50 μM ATP or 2 mM ATP (not specified which), 60 min at RT
T1 construct: Purified human recombinant kinase full-length AKT1 E17K was expressed in insect cells; made in house; host or cells: insect cells
Experimental: AKT1 E17K kinase assay: Inhibitory effects of compounds on AKT1 E17K were undertaken in a 10-pt dose response kinase activity assay measuring phospho-peptide product formation based on TR-FRET signal as described in the following paragraph.
(§1) Purified human recombinant kinase full-length AKT1 E17K was expressed in insect cells and activated in vitro by PDPK1. Ulight™-CREBtide (PerkinElmer, catalog number TRF0107) was used as the peptide substrate. The reaction buffer consisted of 50 mM HEPES pH 7.5, 10 mM MgCl2, 0.01% Triton X-100, 0.01% BSA, 2 mM DTT, 0.6 nM AKT1 E17K, 50 nM. Ulight™ CREBtide and either 50 μM ATP or 2 mM ATP. The compound solution was prepared as 10 mM DMSO stock. […] Final DMSO concentration in the assay was 1%. […] The reaction was stopped after 60 min of incubation at RT by the addition of 10 μL of Detection Mix (PerkinElmer, #CR97-100) consisting of Europium-anti-phospho-CREB (Ser133) (Perkin Elmer, catalog numberTRF0200). Incubation with the detection mix for a further 60 min allowed binding of antibody to the phospho-Ulight™ CREBtide. The fluorescence emissions at 620 nm and 665 nm after excitation at […] was measured using Envision reader. The ratio of the emissions at 665 nm and at 620 nm provided the measure for the amount of phosphorylated CREBtide product of AKT1 E17K kinase activity.

[2] = target: T2, human recombinant kinase full-length wildtype AKT1 (Homo sapiens, UniProt P31749); experiment: AKT1 kinase assay (wildtype, TR-FRET, Lance); format: biochemical; conditions: 0.6 nM wildtype AKT1, 50 nM Ulight-CREBtide, either 50 μM ATP or 2 mM ATP (not specified which), 60 min at RT
T2 construct: Purified human recombinant kinase full-length wildtype AKT1 was expressed in insect cells; made in house; host or cells: insect cells
T2 sequence (P31749 whole entry): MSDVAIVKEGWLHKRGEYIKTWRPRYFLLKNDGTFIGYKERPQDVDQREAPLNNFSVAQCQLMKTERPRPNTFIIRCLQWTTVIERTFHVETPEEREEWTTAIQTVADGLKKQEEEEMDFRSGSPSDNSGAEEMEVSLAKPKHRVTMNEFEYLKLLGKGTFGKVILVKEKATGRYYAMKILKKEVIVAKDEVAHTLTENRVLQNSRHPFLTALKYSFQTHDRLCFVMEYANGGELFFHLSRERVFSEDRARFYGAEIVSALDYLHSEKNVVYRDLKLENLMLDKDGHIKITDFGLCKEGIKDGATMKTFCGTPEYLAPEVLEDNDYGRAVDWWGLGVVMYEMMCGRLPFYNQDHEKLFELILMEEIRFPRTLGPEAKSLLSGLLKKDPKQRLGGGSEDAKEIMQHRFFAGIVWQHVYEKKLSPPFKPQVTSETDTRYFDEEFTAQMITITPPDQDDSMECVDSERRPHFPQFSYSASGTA
Experimental: AKT1 kinase assay: Inhibitory effects of compounds on wildtype AKT1 were undertaken in a 10-pt dose response kinase activity assay measuring phospho-peptide product formation based on TR-FRET signal as described in the following paragraph.
as §1, with “full-length wildtype” for “full-length”, “AKT1” for “AKT1 E17K”, “Ulight™—CREBtide” for “Ulight™-CREBtide”, “AKT1,” for “AKT1 E17K,”, “nM Ulight™-CREBtide” for “nM. Ulight™ CREBtide”

T1 sequence (P31749 whole entry E17K): as the sequence (P31749 whole entry) above, with E17K counted along it

SMILES | IC50 [1] | IC50 [2]
Nc1ncccc1-c1nc2ccc(-c3ccccc3)nc2n1-c1ccc(C2CN(Cc3ccc(C(=O)O)cc3)C2)cc1 [Compound 183, 4-((3-(4-(2-(2-aminopyridin-3-yl)-5-phenyl-3H-imidazo[4,5-b]pyridin-3-yl)phenyl)azetidin-1-yl)methyl)benzoic acid] | 50 to 200 nM | < 500 nM
CC(C)(C)c1ccc2nc(-c3cccnc3N)n(-c3ccc(NC(=O)c4ccc(C(=O)O)cc4)nc3)c2c1 [Compound 174, 4-((5-(2-(2-aminopyridin-3-yl)-6-(tert-butyl)-1H-benzo[d]imidazol-1-yl)pyridin-2-yl)carbamoyl)benzoic acid] | > 500 nM | > 500 nM
Nc1ncccc1-c1nc2cc(-c3cccnc3)cnc2n1-c1ccc(CNC(=O)c2ccc(CC(=O)O)cc2)cc1 [Compound 88, 2-(4-((4-(2-(2-aminopyridin-3-yl)-6-(pyridin-3-yl)-3H-imidazo[4,5-b]pyridin-3-yl)benzyl)carbamoyl)phenyl) acetic acid] | > 500 nM | < 500 nM
COc1cc(CN2CC(c3ccc(-n4c(-c5cccnc5N)nc5ccc(-c6ccccc6)nc54)cc3)C2)ccc1C(=O)O [Compound 184, 4-((3-(4-(2-(2-aminopyridin-3-yl)-5-phenyl-3H-imidazo[4,5-b]pyridin-3-yl)phenyl)azetidin-1-yl)methyl)-2-methoxybenzoic acid] | < 50 nM | < 500 nM
Cc1cc(C(=O)O)ccc1NC(=O)c1ccc(-n2c(-c3cccnc3N)nc3ccc(-c4ccccc4)nc32)cn1 [Compound 178, 4-(5-(2-(2-aminopyridin-3-yl)-5-phenyl-3H-imidazo[4,5-b]pyridin-3-yl)picolinamido)-3-methylbenzoic acid] | > 500 nM | < 500 nM
Nc1ncccc1-c1nc2ccc(-c3ccccc3)nc2n1-c1ccc(CNC(=O)c2cc(C(=O)O)ccc2F)cc1 [Compound 23, 3-((4-(2-(2-aminopyridin-3-yl)-5-phenyl-3H-imidazo[4,5-b]pyridin-3-yl)benzyl)carbamoyl)-4-fluorobenzoic acid] | < 50 nM | < 500 nM
Cc1cc(C(=O)Nc2ccc(-n3c(-c4cccnc4N)nc4ccc(-c5ccccc5)nc43)c(C)n2)c(C)cc1C(=O)O [Compound 155] | > 500 nM | < 500 nM
Nc1ncccc1-c1nc2ccc(-c3ccccc3)nc2n1-c1ccc(NC(=O)c2ccc(C(=O)O)cc2F)nc1 [Compound 62, 4-((5-(2-(2-aminopyridin-3-yl)-5-phenyl-3H-imidazo[4,5-b]pyridin-3-yl)pyridin-2-yl)carbamoyl)-3-fluorobenzoic acid] | 50 to 200 nM | < 500 nM
COC(=O)Cc1cccc(C(=O)NCc2ccc(-n3c(-c4cccnc4N)nc4ccc(-c5ccccc5)nc43)cc2)c1F [Compound 33, methyl 2-(3-((4-(2-(2-aminopyridin-3-yl)-5-phenyl-3H-imidazo[4,5-b]pyridin-3-yl)benzyl)carbamoyl)-2-fluorophenyl)acetate] | > 500 nM | < 500 nM
CC(c1ccc(C(=O)O)cc1)N1CCCC(c2ccc(-n3c(-c4cccnc4N)nc4ccc(-c5ccccc5)nc43)cc2)C1 (centres unmarked) [Compound 170, 4-(1-(3-(4-(2-(2-aminopyridin-3-yl)-5-phenyl-3H-imidazo[4,5-b]pyridin-3-yl)phenyl)piperidin-1-yl)ethyl)benzoic acid] | > 500 nM | < 500 nM
Nc1ncccc1-c1nc2ccc(-c3ccccc3)nc2n1-c1ccc(CNC(=O)c2cccc(CC(=O)O)c2F)cc1 [Compound 34, 2-(3-((4-(2-(2-aminopyridin-3-yl)-5-phenyl-3H-imidazo[4,5-b]pyridin-3-yl)benzyl)carbamoyl)-2-fluorophenyl)acetic acid] | 200 to 500 nM | < 500 nM
Nc1ncccc1-c1nc2ccc(-c3ccccc3)nc2n1-c1ccc(NC(=O)c2cc(F)c(C(=O)O)cc2F)nc1 [Compound 152] | 50 to 200 nM | < 500 nM
Nc1ncccc1-c1nc2cc(-c3ccccc3)cnc2n1-c1ccc(CNC(=O)c2cccc(CC(=O)O)c2)cc1 [Compound 82, 2-(3-((4-(2-(2-aminopyridin-3-yl)-6-phenyl-3H-imidazo[4,5-b]pyridin-3-yl)benzyl)carbamoyl)phenyl) acetic acid] | 200 to 500 nM | < 500 nM
NC(=O)c1cnc2c(c1)nc(-c1cccnc1N)n2-c1ccc(CNC(=O)c2cccc(CC(=O)O)c2)cc1 [Compound 97, 2-[3-[[4-[2-(2-amino-3-pyridyl)-6-carbamoyl-imidazo[4,5-b]pyridin-3-yl]phenyl]methylcarbamoyl]phenyl]acetic acid] | > 500 nM | > 500 nM
CC(c1ccc(C(=O)O)cc1)N1CCC(c2ccc(-n3c(-c4cccnc4N)nc4ccc(-c5ccccc5)nc43)cc2)CC1 (centres unmarked) [Compound 169, 4-(1-(4-(4-(2-(2-aminopyridin-3-yl)-5-phenyl-3H-imidazo[4,5-b]pyridin-3-yl)phenyl)piperidin-1-yl)ethyl)benzoic acid] | 200 to 500 nM | < 500 nM
CC(C)c1ccc2nc(-c3cccnc3N)n(-c3ccc(C4CN(Cc5ccc(C(=O)O)cc5)C4)cc3)c2n1 [Compound 173, 4-((3-(4-(2-(2-aminopyridin-3-yl)-5-isopropyl-3H-imidazo[4,5-b]pyridin-3-yl)phenyl)azetidin-1-yl)methyl)benzoic acid] | > 500 nM | < 500 nM
Nc1ncccc1-c1nc2ccc(-c3cccnc3)nc2n1-c1ccc(CNC(=O)c2ccc(CC(=O)O)cc2)cc1 [Compound 95, 2-(4-((4-(2-(2-aminopyridin-3-yl)-5-(pyridin-3-yl)-3H-imidazo[4,5-b]pyridin-3-yl)benzyl)carbamoyl)phenyl) acetic acid] | 200 to 500 nM | < 500 nM
Nc1ncccc1-c1nc2ccc(-c3ccccc3)nc2n1-c1ccc(NC(=O)c2cccc(CC(=O)O)c2)c(F)c1 [Compound 67, 2-(3-((4-(2-(2-aminopyridin-3-yl)-5-phenyl-3H-imidazo[4,5-b]pyridin-3-yl)-2-fluorophenyl)carbamoyl)phenyl) acetic acid] | 50 to 200 nM | < 500 nM
Cc1nc(NC(=O)c2ccc(C(=O)O)cc2)ccc1-n1c(-c2cccnc2N)nc2ccc(-c3ccccc3)nc21 [Compound 153] | < 50 nM | < 500 nM
Nc1ncccc1-c1nc2ccc(-c3ccccc3)nc2n1-c1ccc(NC(=O)c2cccc(C(=O)O)c2)cc1 [Compound 54, 3-[[4-[2-(2-amino-3-pyridyl)-5-phenyl-imidazo[4,5-b]pyridin-3-yl]phenyl]carbamoyl]benzoic acid] | < 50 nM | < 500 nM
Nc1ncccc1-c1nc2ccc(-c3ccccc3)nc2n1-c1ccc(NCc2ccc(C(=O)O)cc2)cc1 [Compound 58, 4-[[4-[2-(2-amino-3-pyridyl)-5-phenyl-imidazo[4,5-b]pyridin-3-yl]anilino]methyl]benzoic acid] | 50 to 200 nM | < 500 nM
Nc1ncccc1-c1nc2ccc(-c3ccccc3)nc2n1-c1ccc(C(=O)Nc2ccc(C(=O)O)cc2F)cc1 [Compound 180, 4-(4-(2-(2-aminopyridin-3-yl)-5-phenyl-3H-imidazo[4,5-b]pyridin-3-yl)benzamido)-3-fluorobenzoic acid] | < 50 nM | < 500 nM

Reference: US20260200919A1, “SUBSTITUTED AMINOPYRIDINE COMPOUNDS AND METHODS OF TREATING DISEASE USING SAME” (Atavistik Bio, Inc., priority 2023, published 2026)
